Reference: patent publication US5744494A, “Synergistic compositions containing benzimidazole anthelmintics and methylenedioxyphenyl compounds” (priority 1993, dated 1998)

Legend:
[1] = test system: hepatocytes cultured from rats
Text: An experiment using hepatocytes cultured from rats has been initiated to determine the metabolic interactions of piperonyl butoxide and fenbendazole (50 micromoles).

in vivo = conditions: for AUC: goat, po, 7.5 mg/kg
Experimental: In order to minimise interindividual variations our experimental protocol was designed as a crossover (each animal was used as its own control). A five week wash-out period was allowed between crossovers. Six goats were used in this experiment.
First period: Fenbendazole (Panacur 2.5%) was administered orally at a dose rate of 7.5 mg/kg. Blood samples were taken prior to drug administration and 0.25, 0.5, 1, 2, 4, 8, 12, 24, 32, 48, 72 and 96 hours thereafter.
Second period: One hour before administration of fenbendazole (7.5 mg/kg) the animals received a dose of piperonyl butoxide (0.5 g/kg) given intramuscularly. Blood samples were taken as in the first period.
Plasma samples were analysed for fenbendazole by High Performance Liquid Chromatography.

[2] = test system: benzimidazole resistant Haemonchus contortus; test: Total abomasal counts of H. contortus in sheep at necropsy; format: in vivo; conditions: for numbers of H.contortus at necropsy, effect in words: 7 days after treatment; for Mean ±SD numbers of H. contortus in sheep killed 7 days after treatment: piperonyl butoxide 63 mg/kg and/or fenbendazole 5 mg/kg by stomach tube, no treatment 345 ± 69
Experimental: (§1) A study was carried out to determine the efficacy of the piperonyl butoxide: fenbendazole combination and to compare it with piperonyl-butoxide and fenbendazole alone against benzimidazole resistant abomasal parasites.
(§2) Twenty-four parasite naive Suffolk cross lambs were allocated into four groups of six. Each lamb received an oral dose of 6,000 benzimidazole resistant Ostertagia circumcincta and 2,400 benzimidazole resistant Haemonchus contortus.
(§3) Twenty-eight days after infection animals were treated as follows:
(§4) Group 2 Piperonyl butoxide (63 mg/kg) by stomach tube.
(§5) Group 3 Fenbendazole (5 mg/kg) by stomach tube.
(§6) Group 4 Piperonyl butoxide (63 mg/kg) and fenbendazole
(§7) (5 mg/kg) by stomach tube.
(§8) All lambs were faecal sampled and killed seven days after treatment (day 35). Nematode egg numbers were determined in faeces by the McMaster egg counting technique (Gordon and Whitlock (1939) J. Council for Scientific and Industrial Res., 12,50) and numbers of O. circumcincta were determined by the dilution method of Ritchie et al. (1966), Amer J. Vet. Res., 27, 659-667. Total abomasal counts of H. contortus were determined.

[3] = test system: benzimidazole resistant Ostertagia circumcincta and Haemonchus contortus; test: Faecal egg counts in infected lambs (McMaster egg counting technique); format: in vivo
Experimental: as §1, §2, §3, §4, §5, §6, §7, §8

[4] = test system: benzimidazole resistant Ostertagia circumcincta; test: Numbers of O. circumcincta in sheep at necropsy (dilution method); format: in vivo
Experimental: as §1, §2, §3, §4, §5, §6, §7, §8

[5] = pretreatment with 2-diethylaminoethyl-2,2-diphenylvalerate hydrochloride and piperonyl butoxide; Food Chem. Toxicol. 1992, 30(12), 1021-30; cited from earlier work

Structure (SMILES): COC(=O)Nc1nc2ccc([S+]([O-])c3ccccc3)cc2[nH]1 (stereo not shown) [Fenbendazole sulfoxide, fenbendazole sulfoxide]
- concentrations of the sulfoxide and sulfone metabolites [1]: much reduced
- AUC (in vivo; Area under plasma-concentration-time curve (Active alone), active alone, goats, fenbendazole 7.5 mg/kg oral): 7720 ng·h/mL

Structure (SMILES): COC(=O)Nc1nc2ccc(Sc3ccccc3)cc2[nH]1 [Fenbendazole, fenbendazole]
- numbers of H.contortus at necropsy, effect in words [2]: significantly reduced
- Mean ±SD numbers of H. contortus in sheep killed 7 days after treatment [2]: 58 ± 29
- Mean ±SD faecal egg counts in sheep seven days after treatment ([3]; piperonyl butoxide 63 mg/kg and/or fenbendazole 5 mg/kg by stomach tube, no treatment 491 ± 267): 100 ± 84 Eggs per gram of faeces
- reduction in faecal egg counts ([3]; seven days after treatment): 79.7%
- reduction of number of O.circumcincta in the abomasa, in words ([4]; at necropsy, alone): Neither piperonyl butoxide nor fenbendazole alone significantly reduced
- Mean ±SD numbers of O. circumcincta in sheep killed 7 days after treatment ([4]; piperonyl butoxide 63 mg/kg and/or fenbendazole 5 mg/kg by stomach tube, no treatment 2985 ± 654): 2875 ± 1308
- area under the plasma concentration-time curve (AUC), change in words (in vivo): significant increase
- residence time, change in words (in vivo): significantly prolonged
- AUC (in vivo; Area under plasma-concentration-time curve (Active alone)): 4170 ng·h/mL
- AUC (in vivo; Area under plasma-concentration-time curve (Active plus piperonyl butoxide)): 16600 ng·h/mL

Structure (SMILES): CCCCOCCOCCOCc1cc2c(cc1CCC)OCO2 [Piperonyl butoxide, piperonyl butoxide]
- numbers of H.contortus at necropsy, effect in words [2]: no effect
- Mean ±SD numbers of H. contortus in sheep killed 7 days after treatment [2]: 320 ± 133
- effect on oxidative metabolism of fenbendazole by rat liver cells [1]: inhibiting the oxidative metabolism of fenbendazole

Structure (SMILES): c1ccc2[nH]c(-c3cscn3)nc2c1 [thiabendazole]
- acute toxic effects on the kidneys of mice [5]: enhanced
